“Also recorded” adds a separate entry of the source. Where two headings read alike, the source gives them in different places.
How the values were obtained:
Fibroblasts [1] = test: Viability of cells in contact with crosslinking agents or gels with quenching agents (Example 2); format: cell-based
Description: Gels containing various ratios of reactive groups in crosslinking agents to those in the matrix molecules with quenching agents were prepared as indicated in Table 2. Normality was used to indicate the number of reactive groups in the crosslinking agents, the number of functional groups in the matrix molecules, or the number of moieties in the quenching agents. Live cells were seeded and added to the gels, and cell viability was observed. Crosslinking agents were divided into two groups: highly toxic and less toxic. Glutaraldehyde was one of the highly toxic crosslinking agents and epoxide and genipin were the less toxic crosslinking agents. The quenching agents tested were poly-L-lysine and γ-polyglutamic acid.
The above results were summarized from various sets of experiments. Specifically, final concentrations of 0.1 mN, 0.5 mN, 1 mN, and 5 mN of glutaraldehyde were tested alone or added to a gelatin or collagen solution in the presence of poly-L-Lysine as a quenching reagent.

NIH3T3 fibroblast cells = test: Toxicity of collagen gels with crosslinking agents (Example 3); format: cell-based; conditions: for relative toxicity among the three crosslinking agents: collagen gels
Description: Gels were prepared from collagen with glutaraldehyde, EX-810, and genipin at 5 mN, 1 mN, 0.5 mN, and 0.1 mN, respectively. Out of the three crosslinking agents, glutaraldehyde was the most toxic and genipin was the least toxic. Normality was used to indicate the numbers of reactive groups in the crosslinking agents. NIH3T3 fibroblast cells were cultured with the gels and a culture medium in a 96-well plate at 4×10^4 cells per well. Cell viability was observed.

Fibroblasts [2] = test system: Fibroblasts
Description: The cytotoxic effect of the adhesive was evaluated by applying 10 μL of the adhesive to the center of a well of a 24-well plate. Fibroblasts (2.0×10^4 cell/well) were seeded and incubated at 37° C. with 5% CO2 for 38 hours. The number of viable cells was quantified by a hemacytometer.

Structure (SMILES)	Viability of cells (alive) (Fibroblasts [1])	cell viability in gel (Fibroblasts [1])	fibroblast viability in gel (Fibroblasts [1])	Viability of cells (alive) (Fibroblasts [1]; 24 h, 0.1 mN)	cells survived (Fibroblasts [1]; 24 h, 0.1 mN)	cells adhered to the gel (NIH3T3 fibroblast cells; collagen gel, 0.1 mN crosslinker)	cell viability (NIH3T3 fibroblast cells; collagen gel, 0.5 mN crosslinker, 24 hours of culturing)	relative toxicity among the three crosslinking agents (NIH3T3 fibroblast cells)	fibroblast viability in gel (Fibroblasts [1]; 5 mN crosslinker and total 5 mN collagen and poly-L-lysine)	Viability of cells (Fibroblasts [1]; Normality ratio 1:1 of reactive groups in crosslinking agent to functional groups in matrix molecules and quenching agents)	Viability of cells (alive) (Fibroblasts [1]; Normality ratio 1:5)	Viability of cells (alive) (Fibroblasts [1]; Normality ratio 1:10)	Viability of cells (alive) (Fibroblasts [1]; Normality ratio 1:50)	Viability of cells (Fibroblasts [1]; Normality ratio 5:1 of reactive groups in crosslinking agent to functional groups in matrix molecules and quenching agents)	Viability of cells (alive) (Fibroblasts [1]; crosslinking agent only, 1 mN)	Viability of cells (Fibroblasts [1]; crosslinking agent only, ≥5 mN)	cell proliferation (NIH3T3 fibroblast cells; collagen gel, 1 mN crosslinker)	cells survived (NIH3T3 fibroblast cells; collagen gel, 1 mN crosslinker)	cell viability (NIH3T3 fibroblast cells; collagen gel, 5 mN crosslinker)	cytotoxicity of the adhesive (Fibroblasts [2])
O=CCCCC=O [glutaraldehyde]	100%	most adjacent cells died	survived and proliferated like the control groups	~20%	about 20%	20%	most cells died	most toxic	–	–	–	–	–	–	–	–	–	–	–	–
COC(=O)C1=CO[C@@H](O)[C@@H]2C(CO)=CC[C@H]12 [genipin]	–	–	–	–	–	–	–	least toxic	some fibroblasts died; also recorded: most fibroblasts survived in the distal area	Some	100%	100%	100%	All die	≥80%	All die	no cell proliferation	over 80%	all cells died	increased with elevated concentration of genipin
